From patent US20030148954A1, “Agents and methods for modulating activator protein-1-mediated cellular processes” (Wisconsin Alumni Research Foundation, priority 2001, published 2003)

What was measured:
[1] = test system: MMP1; experiment: Northern blotting of MMP1 transcripts in K562-Babe and K562-NIC-1 cells; type: cell-based, human; conditions: 5 nM TPA 12 h, stably transfected NIC-1
Description: (§1) Stable Transfection—K562 cells were stably transfected by electroporation with a Bio-Rad Gene pulser electroporator. Cells (5×10^6) were washed with ice-cold PBS, resuspended in 0.5 ml of ice-cold PBS, mixed with 5 μg linearized plasmid DNA, and subjected to electroporation (960 microfarad; 220 V) in a 0.4 cm-wide electroporation cuvette (BTX). pBabe and pNIC-1 were linearized with NotI. Cells were then added to 20 ml of complete IMEM, grown for 48 h, and diluted in complete IMEM containing 1.5 μg/ml puromycin (pools of K562-Babe and K562-NIC-1 cells). Stably transfected cells were analyzed for erythroid differentiation as soon as the pools were generated by benzidine staining to reduce the probability of phenotypic changes that may result from prolonged growth.
Northern Blotting—Total RNA from K562-Babe and K562-NIC-1 cells was extracted with Triazol (Life Technologies, Inc.). Ten μg of RNA per sample was electrophoresed on a 1% agarose, 6.6% formaldehyde gel and then transferred overnight to a Magnacharge nylon membrane (Osmonics). RNA was cross-linked to the membrane by UV irradiation. Membranes were prehybridized for 30 min at 60° C. in ExpressHyb hybridization solution (Clontech). […] Radioactivity was quantitated by PhosphorImager analysis with ImageQuant software (Molecular Dynamics).

[2] = test system: JNK; experiment: Western blot with phospho-specific antibodies, JNK; type: cell-based, human; conditions: K562-NIC-1 versus K562-Babe, 5 nM TPA 30 min
Description: as §1
To measure the phosphorylation state of components of the MAPK pathway, K562-Babe and K562-NIC-1 cells (1×10^6) were collected after treatment with 5 nM TPA or DMSO for 30 min. Cells were washed once with ice-cold PBS, cell pellets were resuspended in 30 μl ice-cold PBS and were immediately boiled in 70 μl SDS sample buffer for 10 min. Proteins (10 μl) were resolved by SDS-PAGE on a 10% acrylamide gel and transferred to Immobilon P membrane (Millipore). […] Antigen-antibody complexes were detected with ECL Plus™ (Amersham Life Science) according to manufacturer's instructions.

[3] = test system: AP-1; experiment: EMSA of AP-1 DNA binding activity in nuclear extracts; set-up: species or system human; conditions: 5 nM TPA 2 hours, nuclear extracts
Description: K562-Babe and K562-NIC-1 cells were harvested by centrifugation for 10 min at 150×g. Cells were washed once with ice-cold PBS and resuspended in 1.5 volumes of nuclei lysis buffer (10 mM Tris-HCl, pH 7.5, 10 mM NaCl, 3 mM MgCl2, and 0.2% Nonidet P-40) on ice for 3 min. Nuclei were collected by centrifugation for 5 min at 600×g. Nuclei were washed by gentle resuspension in 1.5 volumes of nuclei wash buffer (10 mM Tris-HCl, pH 7.5, 10 mM NaCl, and 3 mM MgCl2) and then collected by centrifugation for 4 min at 600×g. […] Nuclei were extracted for 45 min at 4° C. with constant mixing. The suspension was then centrifuged for 30 min at 150,000×g. Aliquots of the supernatant were frozen on dry ice and stored at -80° C. The protein concentration as measured by the Bradford assay, with y-globulin as a standard ranged from 4 to 10 mg/ml. DTT (5 mM), phenylmethanesulfonyl fluoride (0.5 mM), leupeptin (20 μg/ml), β-glycerophosphate (800 μM), sodium vanadate (1 mM), and sodium molybdate (50 μM) were included in all buffers. Electrophoretic Mobility Shift Assay-EMSA assays were done as described previously (54). AP-1 DNA binding activity was measured by EMSA with a double-stranded end-labeled oligonucleotide [NT] containing a high affinity AP-1 binding site. […] DNA binding activity was quantitated by PhosphorImager analysis with ImageQuant software (Molecular Dynamics).

For “NIC-1: constitutively active Notch-1 intracellular domain, amino acids 1759-2556 of human Notch-1 with carboxyl-terminal Myc tag, expressed from pBabe-NIC-1”, the “TPA induction of MMP1 transcript levels in K562-NIC-1 versus K562-Babe cells” value [1] was “considerably lower”, the “effect on TPA-induced or basal phosphorylation of JNK” value [2] was “did not affect” and the “AP-1 complexes formed with extracts from K562-NIC-1 versus K562-Babe cells” value [3] was “no apparent qualitative or quantitative differences”.
